Test results reported in ChEMBL document CHEMBL5241061, “Advance of structural modification of nucleosides scaffold” (Eur J Med Chem, 2021).

Columns and labels:
Type in all cases: functional, organism-based
[1] = tested on: Human immunodeficiency virus; assay: Antiviral activity against Human immunodeficiency virus; conditions: Human immunodeficiency virus 1
Hepatitis B virus = assay: Antiviral activity against Hepatitis B virus
[2] = tested on: Human immunodeficiency virus; assay: Antiviral activity against Human immunodeficiency virus infected in MT4 cell incubated for 72 hrs by CPE based microscopic assay; conditions: Human immunodeficiency virus 1, MT4, 72 h

| Compound | EC50 [1] | EC50 (Hepatitis B virus) | EC50 [2] |
| --- | --- | --- | --- |
| Nc1ncnc2c1ncn2[C@@H]1CC[C@H](CO)O1 | 8.2 µM | 6 µM | – |
| Nc1ncnc2c1ncn2[C@H]1O[C@@H](CO)[C@H](O)C1(F)F | 3.4 µM | 20 µM | – |
| Cc1cn(C2CC(N=[N+]=[N-])C(CO[PH](=O)OC3CCC4(C)C(C=CC5C4CCC4(C)C(C(C)CCCC(C)C)CCC54)C3)O2)c(=O)[nH]c1=O (configuration not stated) | – | – | 0.001 µM |
| Nc1ncnc2c1ncn2[C@@H]1C=C[C@H](CO)O1 | 0.38 µM | 1.2 µM | – |
